Measured values as given in patent US20250205225A1, “METHODS OF POTENTIATING TEMOZOLOMIDE ACTIVITY AGAINST GLIOBLASTOMA CELLS” (University of Cincinnati, priority 2022, published 2025).
Read-outs that look alike come from different tables or passages of the source.

How the values were obtained:
[1] = test system: patient-derived GBM lines (G76, BT-142, G75, G43); assay: Cell viability assay (CyQuant LDH), all four lines; type: cell-based, human; settings: for IC50: Homo sapiens, BT142, 72 h
Description: (§1) Cell viability Assay: The cytotoxic effects of TMZ, LTZ, and various combinations of the two agents were evaluated using the CyQuant™ Lactate Dehydrogenase (LDH) assay (ThermoFisher Scientific). This assay measures the release of LDH, a cytosolic enzyme, into the extracellular medium resulting from damage to the plasma membrane. Cells (1.4×10^4) were plated in 96 well plates in serum-free medium. Twenty-four hours after seeding, cells were treated with TMZ (0-100 μM), LTZ (0-2 μM), or TMZ (0-10 μM)+LTZ (0.04 μM). Dimethyl sulfoxide (0.1%) was used as a vehicle control. The effect of adding estradiol (250 pg/ml) on cell viability was also determined.

BT-142 cells [2] = assay: Neurosphere growth inhibition; type: cell-based, human; settings: for median neurosphere diameter: 72 h, LTZ 40 nM, TMZ 1 μM, alone or combined
Description: (§2) Neurosphere Growth Inhibition: Since G43 and BT-142 cells form neurospheres in culture medium, the effects of LTZ and TMZ on the growth of the neurosphere. Cells (1×10^4) were plated and 24 hours later treated with LTZ (0-2 μM), TMZ (0-100 μM) or were also determined. Cells were treated with LTZ (0.04 μM)+TMZ (0-10 μM) for 72 h cells, with DMSO (0.1%) serving as vehicle control. Neurosphere dimensions were measured using Leica Stereomicroscope in bright field setting. The effect of addition of estradiol (250 pg/ml) on the neurosphere growth was also determined.

G43 cells [3] = assay: Neurosphere growth inhibition; type: cell-based, human; settings: for neurosphere diameter: 72 h, LTZ 40 nM, TMZ 1 μM, alone or combined, in mm
Description: as §2

G75 cells [4] = assay: Assessment of gamma-H2A.X (flow cytometry); type: cell-based, human; settings: for γ-H2AX induction (DNA damage): single agent (TMZ up to 1 μM; LTZ 500 nM and 1 μM); for LTZ-mediated induction of γ-H2AX in the presence of estradiol: estradiol (250 pg/ml)
Description: (§3) Assessment of gamma-H2A.X: Induction of γH2A.X in G75 and G76 cells (lx 106) treated with LTZ, TMZ, and LTZ+TMZ (0-10 μM) in the presence and the absence of estradiol (250 pg/ml) was assessed using flow cytometric analysis. Based on initial assessment of the time course of γH2A.X induction, a 5 h treatment was used to capture maximal effect. Cell pellets were collected by centrifugation of the cells at 2,000×g for 5 minutes at room temperature. Cells were then washed with ice cold PBS, followed by addition of a 1:1 mixture of methanol and NP40 (300 μL) for fixation and permeabilization of the cells. Following centrifugation at 4° C. at 290×g, 100 μL of 1:250 dilution of the primary unconjugated antibody for gamma-H2A.X at room temperature were added to the cells. The cells were incubated with the primary antibody for 20 min and washed with 600 μL of 1:1 methanol and NP40 mixture. Secondary Per-CP conjugated antibody was added to the cells at a dilution of 1:1000 and incubated at room temperature in the dark for 20 minutes. Cells were washed again with 600 μL of 1:1 methanol and NP40 mixture, re-suspended in 1×PBS, and subjected to flow cytometric analysis with the excitation wavelength of 488 nm (Beckman CytoFlex flow cytometer). […] The scatter plots were analyzed using CytExpert version 2.3 to assess the percentage of cells positive for γH2A.X versus the isotype control.

G76 cells [5] = assay: Assessment of gamma-H2A.X (flow cytometry); type: cell-based, human; settings: for γ-H2AX induction (DNA damage): single agent (TMZ up to 1 μM; LTZ 500 nM and 1 μM); for LTZ-mediated induction of γ-H2AX in the presence of estradiol: estradiol (250 pg/ml)
Description: as §3

G75 cells [6] = assay: Apoptosis induction, Caspase-Glo 3/7; type: cell-based, human; settings: for EC50: Homo sapiens; for induction of apoptosis (caspase 3/7), in words: TMZ up to 5 μM
Description: (§4) Apoptosis induction assay using Caspase-Glo® 3/7 system: G75 and G76 cells were employed to assess the effects of LTZ, TMZ, and LTZ+TMZ combination treatment on induction of apoptosis through caspase 3/7 activation. Cells were seeded at a density of 1.5×10^4 cells per well in a translucent walled, clear bottom, 96-well plate. Promega Caspase-Glo® 3/7 Assay system was used to assess the caspase 3/7 levels in cells treated with LTZ, TMZ, LTZ (0.04 μM)+TMZ (0-5 μM), and vehicle (0.1% DMSO). Cells were treated for 24 h after plating. Caspase-Glo® 3/7 3D substrate and Caspase-Glo® 3/7 3D buffer was mixed to form a 10 mL reaction mixture and 100 μL of the mixture was added to each well. The reaction was allowed to proceed at room temperature in the dark for 30 minutes. The luminescence readings were carried out 24 h after the treatment using Synergy™ HTX Multi-Mode Microplate Reader. The experiment was repeated in presence of estradiol to assess the effect of estradiol on caspase induction in G75 and G76 cells.

G76 cells [7] = assay: Apoptosis induction, Caspase-Glo 3/7; type: cell-based, human; settings: for EC50: Homo sapiens; for induction of apoptosis (caspase 3/7), in words: TMZ up to 5 μM
Description: as §4

G43 cells [8] = assay: Cell viability assay (CyQuant LDH); type: cell-based, human; settings: 72 h, single agent, read-out: IC50 (cytotoxicity)
Description: as §1

G76 cells [9] = assay: Cell viability assay (CyQuant LDH); type: cell-based, human; settings: 72 h, single agent, read-out: IC50 (cytotoxicity)
Description: as §1

BT-142 cells [10] = assay: Cell viability assay (CyQuant LDH); type: cell-based; settings: Homo sapiens, BT142, 72 h, single agent, read-out: IC50 (cytotoxicity)
Description: as §1

G75 cells [11] = assay: Cell viability assay (CyQuant LDH); type: cell-based; settings: Homo sapiens, 72 h, single agent, read-out: IC50 (cytotoxicity)
Description: as §1

[12] = cited from earlier work
[13] = LTZ 40 nM alone or combined with TMZ
[14] = single agent, Emax model, read-out: EC50 for caspase 3/7 induction
[15] = with letrozole 40 nM, read-out: EC50 for caspase 3/7 induction by temozolomide in the presence of letrozole (40 nM)

N#Cc1ccc(C(c2ccc(C#N)cc2)n2cncn2)cc1 [LTZ, 4,4′-((1H-1,2,4-triazol-1-yl)methylene)dibenzonitrile]
IC50 ([1]; single agent, read-out: IC50 (cytotoxicity), range over the cell lines): 0.08 to 0.67 µM | letrozole effects in cell viability assay with estradiol added ([1]; estradiol (250 pg/ml) added to the culture media): completely abrogated the letrozole effects | median neurosphere diameter (BT-142 cells [2]): 1.1±0.077 mm | neurosphere growth inhibition (in words) (BT-142 cells [2]; [13]): minimally impacted neurosphere growth | letrozole effects in neurosphere growth inhibition assay with estradiol added (BT-142 cells [2]; estradiol (250 pg/ml) added): completely abrogated the letrozole effects | neurosphere diameter (G43 cells [3]): 1.85±0.13 | neurosphere growth inhibition (in words) (G43 cells [3]; [13]): minimally impacted neurosphere growth | letrozole effects in neurosphere growth inhibition assay with estradiol added (G43 cells [3]; estradiol (250 pg/ml) added): completely abrogated the letrozole effects | γ-H2AX induction (DNA damage) (G75 cells [4]; 5 h): considerably increased γ-H2AX levels | γ-H2AX induction (DNA damage) (G75 cells [4]; 5 h, listed as Letrozole): caused DNA damage | LTZ-mediated induction of γ-H2AX in the presence of estradiol (G75 cells [4]): abrogated in the presence of estradiol | LTZ-mediated induction of γ-H2AX in the presence of estradiol (G75 cells [4]; listed as letrozole): prevented letrozole-mediated DNA damage | γ-H2AX induction (DNA damage) (G76 cells [5]; 5 h): considerably increased γ-H2AX levels | γ-H2AX induction (DNA damage) (G76 cells [5]; 5 h, listed as Letrozole): caused DNA damage | LTZ-mediated induction of γ-H2AX in the presence of estradiol (G76 cells [5]): abrogated in the presence of estradiol | LTZ-mediated induction of γ-H2AX in the presence of estradiol (G76 cells [5]; listed as letrozole): prevented letrozole-mediated DNA damage | EC50 (G75 cells [6]; [14]): 5.07 ± 1.1 µM | letrozole-mediated induction of apoptosis in the presence of estradiol (G75 cells [6]; estradiol present): prevented letrozole-mediated DNA damage and induction of apoptosis | induction of apoptosis (caspase 3/7), in words (G75 cells [6]; single agent): very effective in inducing apoptosis in a concentration-dependent manner | EC50 (G76 cells [7]; [14]): 1.8 ± 0.312 µM | letrozole-mediated induction of apoptosis in the presence of estradiol (G76 cells [7]; estradiol present): prevented letrozole-mediated DNA damage and induction of apoptosis | induction of apoptosis (caspase 3/7), in words (G76 cells [7]; single agent): very effective in inducing apoptosis in a concentration-dependent manner

Cn1nnc2c(C(N)=O)ncn2c1=O [TMZ, 4-methyl-5-oxo-2,3,4,6,8-pentazabicyclo[4.3.0]nona-2,7,9-triene-9-carboxamide]
IC50 (G43 cells [8]): 165 µM | IC50 (G43 cells [8]; Homo sapiens): 165 µM | IC50 (G76 cells [9]): 1.31 µM | IC50 (G76 cells [9]; Homo sapiens): 1.3 µM | IC50 (BT-142 cells [10]): 15.3 µM | IC50 (G75 cells [11]): 107 µM | IC50 ([1]; with LTZ 40 nM, read-out: TMZ IC50 in the presence of LTZ (40 nM), range for all four cell lines): 0.16 to 0.69 µM | median neurosphere diameter (BT-142 cells [2]): 0.9±0.023 mm | neurosphere diameter (G43 cells [3]): 1.6±0.085 | γ-H2AX induction (DNA damage), TMZ combined with LTZ (G75 cells [4]; 5 h, LTZ 40 nM + TMZ 0.1 μM): significantly enhanced DNA damage by temozolomide | γ-H2AX induction (DNA damage) (G75 cells [4]; 5 h): not in G75 cells | γ-H2AX induction (DNA damage), TMZ combined with LTZ (G76 cells [5]; 5 h, LTZ 40 nM + TMZ 0.1 μM): significantly enhanced DNA damage by temozolomide | γ-H2AX induction (DNA damage) (G76 cells [5]; 5 h): noticeable induction of γ-H2AX | EC50 (G75 cells [6]; [14]): 93.8 µM | EC50 (G75 cells [6]; [15]): 5.1 µM | induction of apoptosis (caspase 3/7), in words (G75 cells [6]; single agent): not in G75 cells | TMZ-mediated apoptosis (caspase 3/7) with LTZ (40 nM) (G75 cells [6]; with LTZ 40 nM): striking increase in TMZ-mediated apoptosis | EC50 (G76 cells [7]; [14]): 6.4 µM | EC50 (G76 cells [7]; [15]): 1.8 µM | induction of apoptosis (caspase 3/7), in words (G76 cells [7]; single agent): induced apoptosis in G76 cells | TMZ-mediated apoptosis (caspase 3/7) with LTZ (40 nM) (G76 cells [7]; with LTZ 40 nM): striking increase in TMZ-mediated apoptosis | peak plasma levels ([12]; doses of 100-200 mg/m^2, listed as temozolomide): 25 to 50 µM | partitioning of the drug from plasma to the brain interstitial fluid ([12]; intracerebral microdialysis, peritumoral): 13-17% | brain interstitial fluid (peritumoral) concentrations ([12]; intracerebral microdialysis, approximately): 3 to 8 µM
